Earlier results in patent US20170360829A1, “TREATMENT OF VASCULAR ANOMALIES” (GILLIES MCINDOE RESEARCH INSTITUTE, priority 2016, published 2017).

How the values were obtained:
venous malformation (VM) = conditions: treatment of VM; review by van der Vleuten et al. (ref. 14)
[1] = tested on: several tumoral cell lines

Row | IC50 relative to cisplatin [1] | Compound | effective in % of cases (venous malformation (VM))
1 | – | bleomycin | 88%
2 | lower IC50 than cisplatin | [Pt(dmba)(aza-N1)(dmso)] complex 1 | –
3 | – | CCO [ethanol] | 74%
4 | – | CCCCCCCCCCCCCCOS(=O)(=O)[O-].[Na+] [sodium tetradecyl sulfate] | 86%
5 | – | polidocanol | 82%
